Like-named read-outs stand apart in the source and are kept apart here. Residues, ends and D or L forms follow the SMILES beside them.
Tests used:
[1] = target: kappa 1-74/delta65-372 chimera (Mus musculus, UniProt P32300+P33534, A193I/A281G/D128E/D204G/D206V/DEL208-209/DEL216-217/DEL300-312/E203D/E218S/E297A/F225V/F314L/G197A/G198V/I133A/I135L/I177L/I191V/I194M/I237V/I243T/I250L/I284V/I285V/I294L/I85V/INS221Y/INS293[…]/K200Q/K254R/K274R/L173A/L184V/L196M/L224T/L275M/L295V/M112L/M226T/M90L/N122E/N268S/R263K/S123T/S188G/S192P/S211M/T110S/T247G/T288A/T321A/V108A/V118K/V129L/V201P/V205A/V232L/V239I/V282A/V83G/Y219P/Y313H)
kappa 1-74/delta65-372 chimera, sequence (P33534+P32300 fused with the stated changes): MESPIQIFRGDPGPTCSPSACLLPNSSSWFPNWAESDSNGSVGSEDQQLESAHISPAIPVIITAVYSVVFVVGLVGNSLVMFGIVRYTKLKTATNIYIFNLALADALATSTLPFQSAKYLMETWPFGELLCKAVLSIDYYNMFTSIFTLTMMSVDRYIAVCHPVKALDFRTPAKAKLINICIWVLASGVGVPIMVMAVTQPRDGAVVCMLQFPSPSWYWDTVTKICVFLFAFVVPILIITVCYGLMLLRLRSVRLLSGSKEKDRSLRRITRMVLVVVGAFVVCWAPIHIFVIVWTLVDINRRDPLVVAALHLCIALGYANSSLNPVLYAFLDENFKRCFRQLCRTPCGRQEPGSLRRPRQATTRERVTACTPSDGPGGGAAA

cloned mouse δ receptor = target: T1, cloned mouse δ receptor (Mus musculus, UniProt P32300); test: biochemical; type: binding
T1 construct: expressed in transfected cells
T1 sequence (P32300 whole entry): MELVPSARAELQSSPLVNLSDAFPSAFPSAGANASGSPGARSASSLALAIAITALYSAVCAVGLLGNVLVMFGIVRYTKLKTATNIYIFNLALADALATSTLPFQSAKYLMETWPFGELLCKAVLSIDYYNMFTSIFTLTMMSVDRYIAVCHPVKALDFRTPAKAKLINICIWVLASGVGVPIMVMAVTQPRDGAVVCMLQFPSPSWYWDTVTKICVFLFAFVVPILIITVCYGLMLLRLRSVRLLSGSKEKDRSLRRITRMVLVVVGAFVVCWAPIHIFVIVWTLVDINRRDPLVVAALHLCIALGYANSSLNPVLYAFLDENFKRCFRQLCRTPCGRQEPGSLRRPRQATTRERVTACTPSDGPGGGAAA

[2] = target: T2, H278N mutant mouse delta opioid receptor (Mus musculus, UniProt P32300, H278N); test: biochemical; type: binding
T2 construct: expressed in transfected cells; host or cells: COS-7 (transient, pCMV6c)
T2 sequence (P32300 whole entry H278N): as the sequence (P32300 whole entry) above, with H278N counted along it

MOP2 [3] = target: T3, MOP2 (Mus musculus, UniProt P35377); type: binding
T3 construct: expressed in transfected cells; host or cells: COS-7 (transient)
T3 sequence (P35377 whole entry): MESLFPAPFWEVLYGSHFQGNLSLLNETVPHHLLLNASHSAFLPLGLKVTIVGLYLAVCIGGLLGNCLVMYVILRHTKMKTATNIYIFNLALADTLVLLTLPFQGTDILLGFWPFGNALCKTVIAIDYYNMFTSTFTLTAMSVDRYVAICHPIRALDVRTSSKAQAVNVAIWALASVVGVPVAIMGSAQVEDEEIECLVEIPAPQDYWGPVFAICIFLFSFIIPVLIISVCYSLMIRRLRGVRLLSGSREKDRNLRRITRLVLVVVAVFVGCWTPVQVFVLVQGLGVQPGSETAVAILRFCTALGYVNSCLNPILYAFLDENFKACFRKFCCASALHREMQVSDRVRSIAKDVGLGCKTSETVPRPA

[4] = target: T4, wild-type mouse delta opioid receptor (Mus musculus, UniProt P32300); test: biochemical; type: binding
T4 construct: expressed in transfected cells; host or cells: COS-7 (transient, pCMV6c)
T4 sequence (P32300 whole entry): as the sequence (P32300 whole entry) above

[5] = target: T5, D128N mutant mouse delta opioid receptor (Mus musculus, UniProt P32300, D128N); test: biochemical; type: binding
T5 construct: expressed in transfected cells; host or cells: COS-7 (transient, pCMV6c)
T5 sequence (P32300 whole entry D128N): as the sequence (P32300 whole entry) above, with D128N counted along it

MOP2 [6] = target: T3, MOP2; type: cell-based
cloned rat μ receptor = target: T6, cloned rat μ receptor (Rattus norvegicus, UniProt P33535); test: biochemical; type: binding
T6 construct: expressed in transfected cells; host or cells: COS-7 (transient)
T6 sequence (P33535 whole entry): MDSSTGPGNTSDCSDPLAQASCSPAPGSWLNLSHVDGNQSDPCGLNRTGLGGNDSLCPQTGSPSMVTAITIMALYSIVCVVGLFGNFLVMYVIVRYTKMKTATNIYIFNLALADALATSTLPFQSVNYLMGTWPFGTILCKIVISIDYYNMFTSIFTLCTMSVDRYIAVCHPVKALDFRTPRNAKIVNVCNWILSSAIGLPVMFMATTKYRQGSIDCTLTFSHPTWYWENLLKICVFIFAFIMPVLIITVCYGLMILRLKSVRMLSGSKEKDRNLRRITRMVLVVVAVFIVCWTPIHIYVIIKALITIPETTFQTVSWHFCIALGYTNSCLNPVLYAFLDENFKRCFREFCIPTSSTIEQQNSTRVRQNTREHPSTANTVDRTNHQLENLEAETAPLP

cloned mouse κ receptor = target: T7, cloned mouse κ receptor (Mus musculus, UniProt P33534); test: biochemical; type: binding
T7 construct: expressed in transfected cells
T7 sequence (P33534 whole entry): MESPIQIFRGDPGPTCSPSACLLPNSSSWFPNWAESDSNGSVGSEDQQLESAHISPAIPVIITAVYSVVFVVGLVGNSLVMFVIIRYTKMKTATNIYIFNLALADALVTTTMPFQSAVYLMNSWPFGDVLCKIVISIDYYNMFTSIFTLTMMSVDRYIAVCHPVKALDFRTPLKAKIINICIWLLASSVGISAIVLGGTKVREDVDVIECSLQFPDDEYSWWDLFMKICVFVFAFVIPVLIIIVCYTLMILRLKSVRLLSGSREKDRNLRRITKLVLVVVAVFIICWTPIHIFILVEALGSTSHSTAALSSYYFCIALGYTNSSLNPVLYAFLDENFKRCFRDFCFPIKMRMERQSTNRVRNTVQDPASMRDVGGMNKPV

κ/δ2eloop chimera = type: binding
[7] = target: T8, cloned human μ opioid receptor (Homo sapiens, UniProt P35372); type: binding
T8 construct: This fragment includes the entire coding region of the human μ opioid receptor; expressed in transfected cells; host or cells: COS-7 (transient, pcDNA3)
T8 sequence (P35372 whole entry, the tested form may be a part): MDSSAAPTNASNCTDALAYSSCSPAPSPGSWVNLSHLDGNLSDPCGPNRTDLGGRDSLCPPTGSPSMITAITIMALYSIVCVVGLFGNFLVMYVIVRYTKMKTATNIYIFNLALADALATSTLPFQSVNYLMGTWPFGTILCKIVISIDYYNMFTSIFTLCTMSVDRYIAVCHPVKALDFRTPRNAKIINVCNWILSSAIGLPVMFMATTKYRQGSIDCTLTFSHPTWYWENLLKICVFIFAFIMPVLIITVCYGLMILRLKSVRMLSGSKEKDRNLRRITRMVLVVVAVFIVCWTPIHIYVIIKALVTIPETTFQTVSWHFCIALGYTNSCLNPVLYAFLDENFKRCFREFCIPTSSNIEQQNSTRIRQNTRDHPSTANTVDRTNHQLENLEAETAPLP

[8] = target: T9, cloned rat μ opioid receptor (Rattus norvegicus, UniProt P33535); type: binding
T9 construct: expressed in transfected cells; host or cells: COS-7 (transient)
T9 sequence (P33535 whole entry): as the sequence (P33535 whole entry) above

[9] = target: T10, mouse delta opioid receptor aspartate 95 to asparagine mutant (Mus musculus, UniProt P32300, D95N); test: Binding to delta receptor mutant with aspartate 95 converted to asparagine, COS-7 cells
T10 construct: expressed in transfected cells; host or cells: COS-7
T10 sequence (P32300 whole entry D95N): as the sequence (P32300 whole entry) above, with D95N counted along it

[10] = target: κ1-78/δ70-372 chimeric receptor (Mus musculus, UniProt P32300+P33534, A193I/A281G/D128E/D204G/D206V/DEL208-209/DEL216-217/DEL300-312/E203D/E218S/E297A/F225V/F314L/G197A/G198V/I133A/I135L/I177L/I191V/I194M/I237V/I243T/I250L/I284V/I285V/I294L/I85V/INS221Y/INS293VIVWTLVDINRRDP/K200Q/K254R/K274R/L173A/L184V/L196M/L224T/L275M/L295V/M112L/M226T/M90L/N122E/N268S/R263K/S123T/S188G/S192P/S211M/T110S/T247G/T288A/T321A/V108A/V118K/V129L/V201P/V205A/V232L/V239I/V282A/V83G/Y219P/Y313H); test: biochemical
κ1-78/δ70-372 chimeric receptor, sequence (P33534+P32300 fused with the stated changes): as the sequence (P33534+P32300 fused with the stated changes) above

[11] = read-out: Binding potencies (Ki-nM) δ RECEPTOR [^3H] naltrindole
[12] = read-out: Binding potencies (Ki-nM) μ RECEPTOR [^3H] DAMGO
[13] = read-out: Binding potencies (Ki-nM) κ RECEPTOR [^3H] U-69, 593
[14] = Binding potencies (Ki-nM) μ RECEPTOR [^3H] DAMGO

## Oc1ccc2c3c1O[C@H]1c4[nH]c5ccccc5c4C[C@@]4(O)[C@@H](C2)N(CC2CC2)CC[C@]314 [[^3H]naltrindole]
[1]
  Binding of radioligand to the kappa 1-74/delta65-372 chimera: potently bound
Cloned mouse δ receptor
  Kd: 0.18 nM
[2]
  Kd: 0.2 ± 0.1 nM
MOP2 [3]
  Specific binding of radioligand to MOP2: did not bind specifically
[4]
  Kd: 0.6 ± 0.2 nM
[5]
  Kd: 1.3 ± 0.6 nM

## CN1CC[C@]23c4c5ccc(O)c4O[C@H]2[C@@H](O)C=C[C@H]3[C@H]1C5 [morphine]
MOP2 [6]
  Effect on forskolin-stimulated cAMP formation, MOP2: no effect

## CN(C(=O)Cc1ccc(Cl)c(Cl)c1)C(CN1CCCC1)c1cccc(OCC(=O)O)c1 (centres unmarked) [ICI 204, 448]
Cloned mouse δ receptor; [11]
  Ki: > 1000 nM
Cloned rat μ receptor; [12]
  Ki: > 1000 nM
Cloned mouse κ receptor; [13]
  Ki: 0.71 nM

## Dynorphin A (1–17)
κ/δ2eloop chimera
  Binding to the κ/δ2eloop chimera: did not bind

## COc1ccc2c3c1O[C@H]1[C@@H](O)C=C[C@H]4[C@@H](C2)N(C)CC[C@@]341 [codeine]
Cloned mouse δ receptor
  Ki: > 1000 nM
Cloned mouse κ receptor
  Ki: > 1000 nM
MOP2 [6]
  Effect on forskolin-stimulated cAMP formation, MOP2: no effect

## Dynorphin A (1–8)
κ/δ2eloop chimera
  Binding to the κ/δ2eloop chimera: did not bind

## CN1CC[C@@]23CCCC[C@@H]2[C@@H]1Cc1ccc(O)cc13 [Dextrorphan]
Cloned mouse δ receptor
  Ki: > 1000 nM
Cloned mouse κ receptor
  Ki: > 1000 nM

## NC(=O)[C@@H]1CCCN1C(=O)[C@H](Cc1ccccc1)NC(=O)[C@@H]1CCCN1C(=O)[C@@H](N)Cc1ccc(O)cc1 [morphiceptin] (H-YPFP-NH2)
Cloned mouse δ receptor
  Ki: > 1000 nM
Cloned rat μ receptor; Affinities for the cloned μ receptor
  Ki: 10 to 100 nM
Cloned rat μ receptor; [14]
  Ki: 56 nM
Cloned mouse κ receptor
  Ki: > 1000 nM

## CN1CC[C@]23c4c5ccc(O)c4O[C@H]2C(=O)C2(Cc4ccccc4C2)C[C@@]3(O)[C@H]1C5 [SIOM, 7-spiroindino-oxymorphone]
[2]; read-out: Potencies of Agonists to Bind, H278N mutant (Ki values in nM)
  Ki: 1.8 nM
Cloned rat μ receptor; [12]
  Ki: 33 nM
Cloned mouse κ receptor; [13]
  Ki: > 1000 nM
[4]; read-out: Potencies of Agonists to Bind, Wild-type (Ki values in nM)
  Ki: 46 nM
[5]; read-out: Potencies of Agonists to Bind, D128N mutant (Ki values in nM)
  Ki: 1220 nM

## D-Ala^2-deltorphin II
[7]
  Binding to the cloned human receptor (inhibition of [3H]DAMGO binding), words: did not bind

## CC[C@]12CCN(CC3CC3)[C@H](C(=O)c3ccc(O)cc31)[C@@H]2C [Ethylketocyclazocine]
Cloned mouse δ receptor
  Ki: 101 nM
Cloned rat μ receptor
  Ki: 3.1 nM
MOP2 [6]
  Effect on forskolin-stimulated cAMP formation, MOP2: no effect

## C[C@@H](O)[C@H](NC(=O)[C@H]1NC(=O)[C@H]([C@@H](C)O)NC(=O)[C@H](CCCN)NC(=O)[C@@H](Cc2c[nH]c3ccccc23)NC(=O)[C@H](Cc2ccc(O)cc2)NC(=O)[C@@H](NC(=O)[C@H](N)Cc2ccccc2)CSSC1(C)C)C(N)=O [CTOP, D-Phe-Cys-Tyr-D-Trp-Orn-Thr-Pen-Thr-NH2]
Cloned mouse δ receptor
  Ki: > 1000 nM
Cloned mouse κ receptor
  Ki: > 1000 nM

## Oc1ccc2c3c1O[C@H]1c4[nH]c5c(c4C[C@@]4(O)[C@@H](C2)N(CC2CC2)CC[C@]314)C[C@@]1(O)[C@H]2Cc3ccc(O)c4c3[C@@]1(CCN2CC1CC1)[C@H]5O4 [nor-BNI, nor-binaltorphimine]
Cloned mouse κ receptor
  Ki: 0.027 nM

## pertussis toxin [PTX]
[8]
  Decrease of specific [3H]DAMGO labelling of the rat μ receptor: 42+/−5%

## O=C1/C(=C/c2ccccc2)C[C@@]2(O)[C@H]3Cc4ccc(O)c5c4[C@@]2(CCN3CC2CC2)[C@H]1O5 [BNTX, 7-Benyllidenenaltrexone]
Cloned mouse δ receptor; [11]
  Ki: 0.66 nM
Cloned rat μ receptor; [12]
  Ki: 18 nM
Cloned mouse κ receptor; [13]
  Ki: 55 nM
[9]
  Affinity of aspartate 95 mutant and wild-type delta receptors compared: similar

## C[C@@H](NC(=O)[C@@H](N)Cc1ccc(O)cc1)C(=O)NCC(=O)N(C)[C@@H](Cc1ccccc1)C(=O)NCCO [[^3H]DAMGO]
MOP2 [3]
  Specific binding of radioligand to MOP2: did not bind specifically

## CC[C@H](C)[C@H](NC(=O)[C@H](C)NC(=O)[C@H](CC(N)=O)NC(=O)[C@H](CCCCN)NC(=O)[C@H](Cc1ccccc1)NC(=O)[C@H](CC(C)C)NC(=O)[C@@H](NC(=O)[C@@H](NC(=O)[C@H](CC(C)C)NC(=O)[C@@H]1CCCN1C(=O)[C@@H](NC(=O)[C@H](CCC(N)=O)NC(=O)[C@H](CO)NC(=O)[C@H](CCCCN)NC(=O)[C@H](CCC(=O)O)NC(=O)[C@H](CO)NC(=O)[C@@H](NC(=O)[C@H](CCSC)NC(=O)[C@H](Cc1ccccc1)NC(=O)CNC(=O)CN)[C@@H](C)O)[C@@H](C)O)C(C)C)[C@@H](C)O)C(=O)N[C@H](C(=O)N[C@@H](CCCCN)C(=O)N[C@@H](CC(N)=O)C(=O)N[C@@H](C)C(=O)N[C@@H](Cc1ccc(O)cc1)C(=O)N[C@@H](CCCCN)C(=O)N[C@@H](CCCCN)C(=O)NCC(=O)N[C@@H](CCC(=O)O)C(=O)O)[C@@H](C)CC [des-Tyr^1-β-endorphin] (H-GGFMTSEKSQTPLVTLFKNAIIKNAYKKGE-OH; N-terminus and C-terminus assumed)
Cloned mouse δ receptor; [11]
  Ki: > 1000 nM
Cloned rat μ receptor; [12]
  Ki: > 1000 nM
Cloned mouse κ receptor; [13]
  Ki: > 1000 nM

## β-Endorphin (human)
MOP2 [6]
  Effect on forskolin-stimulated cAMP formation, MOP2: no effect

## CC(C)=CCN1CCC2(C)c3cc(O)ccc3CC1C2C (centres unmarked) [^3H-pentazocine]
MOP2 [3]
  Specific binding of radioligand to MOP2: did not bind specifically

## CCC(=O)C(CC(C)N(C)C)(c1ccccc1)c1ccccc1 (centres unmarked) [methadone]
MOP2 [6]
  Effect on forskolin-stimulated cAMP formation, MOP2: no effect

## CN1CC[C@]23CCCC[C@H]2[C@H]1Cc1ccc(O)cc13 [Levorphanol]
Cloned mouse δ receptor
  Ki: 5 nM
[2]
  Ki: 2.8 nM
Cloned mouse κ receptor
  Ki: 6.5 nM
MOP2 [6]
  Effect on forskolin-stimulated cAMP formation, MOP2: no effect
[4]
  Ki: 187 nM
[5]
  Ki: 4380 nM

## COC(=O)/C=C/C(=O)N[C@@H]1CC[C@@]2(O)[C@H]3Cc4ccc(O)c5c4[C@@]2(CCN3CC2CC2)[C@H]1O5 [β-FNA, β-funaltrexamine]
Cloned mouse δ receptor; [11]
  Ki: 48 nM
Cloned rat μ receptor; [12]
  Ki: 0.33 nM
Cloned mouse κ receptor; [13]
  Ki: 2.8 nM
[7]; read-out: Binding potencies (Ki-nM) for the cloned human μ opioid receptor [^3H] DAMGO
  Ki: 0.29 nM

## CC[C@H](C)[C@H](NC(=O)[C@H](CCCNC(=N)N)NC(=O)[C@H](CCCNC(=N)N)NC(=O)[C@H](CC(C)C)NC(=O)[C@H](Cc1ccccc1)NC(=O)CNC(=O)CNC(=O)[C@@H](N)Cc1ccc(O)cc1)C(=O)N[C@@H](CCCNC(=N)N)C(=O)N1CCC[C@H]1C(=O)N[C@@H](CCCCN)C(=O)N[C@@H](CC(C)C)C(=O)N[C@@H](CCCCN)C(=O)N[C@@H](Cc1c[nH]c2ccccc12)C(=O)N[C@@H](CC(=O)O)C(=O)N[C@@H](CC(N)=O)C(=O)N[C@@H](CCC(N)=O)C(=O)O [Dynorphin]
κ/δ2eloop chimera
  Binding to the κ/δ2eloop chimera: did not bind

## Oc1ccc2c3c1O[C@H]1c4oc5ccccc5c4C[C@@]4(O)[C@@H](C2)N(CC2CC2)CC[C@]314 [NTB]
Cloned mouse δ receptor; [11]
  Ki: 0.013 nM
[2]; read-out: Potencies of Antagonist binding, H278N mutant (Ki values in nM)
  Ki: 0.03 nM
Cloned rat μ receptor; [12]
  Ki: 12 nM
Cloned mouse κ receptor; [13]
  Ki: 13 nM
[4]; read-out: Potencies of Antagonist binding, Wild-type (Ki values in nM)
  Ki: 0.04 nM
[9]
  Affinity of aspartate 95 mutant and wild-type delta receptors compared: similar
[5]; read-out: Potencies of Antagonist binding, D128N mutant (Ki values in nM)
  Ki: 0.07 nM

## CC(C)=CCN1CCC2(C)c3cc(O)ccc3CC1C2C (centres unmarked) [pentazocine]
Cloned mouse δ receptor
  Ki: 31 nM
Cloned rat μ receptor
  Ki: 5.7 nM

## CC(C)C[C@H](NC(=O)[C@H](Cc1ccccc1)NC(=O)CNC(=O)[C@@H](CO)NC(=O)[C@@H](N)Cc1ccc(O)cc1)C(=O)N[C@H](C(=O)O)[C@@H](C)O [DSLET, [D-Ser^2, Leu^5]enkephalin-Thr^6]
Cloned rat μ receptor; [14]
  Ki: 39 nM

## Oc1ccc2c3c1O[C@H]1c4[nH]c5ccccc5c4C[C@@]4(O)[C@@H](C2)N(CC2CC2)CC[C@]314 [naltrindole]
[2]
  Ki: 0.5 nM
Cloned mouse κ receptor
  Ki: 66 nM
[10]
  IC50: 0.25 nM
[4]
  Ki: 1.4 nM
[9]
  Affinity of aspartate 95 mutant and wild-type delta receptors compared: similar
[5]
  Ki: 5.6 nM

## C=CCN1CC[C@]23c4c5ccc(O)c4O[C@H]2[C@@H](O)C=C[C@H]3[C@H]1C5 [nalorphine]
Cloned rat μ receptor
  Ki: 0.97 nM
Cloned mouse κ receptor
  Ki: 1.1 nM

Source: patent publication US7235366B1 (priority 1993, dated 2007)
